Source: PubChem BioAssay AID1963834 (Molecular Pharmacology Branch, DTP, NCI, 2024)

Test system: 873145-292-R-J1-PDC complex spheroid viability
Assay: Anticancer human tumor 873145-292-R-J1-PDC patient-derived renal clear cell carcinoma cell line growth inhibition [POLQ]
Details: for IC50: curve of first compound; for viability, T/C: stronger effect = lower value
Procedure, shortened: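 Complex spheroid viability model combining PDC tumour cells with endothelial (HUVEC) and MSC stromal cells. Novobiocin, ART-558 or RP6685 were tested singly and in combination with standard and investigational anticancer drugs. Each was titrated in half-log steps from near clinical Cmax, or from 10 microM where Cmax was unknown.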

[1] = second compound 0.0316 µM, first compound 0.0316 µM
[2] = second compound 0.0316 µM, first compound 0.1 µM
[3] = second compound 0.0316 µM, first compound 0.316 µM
[4] = second compound 0.0316 µM, first compound 1 µM
[5] = second compound 0.0316 µM, first compound 3.16 µM
[6] = second compound 0.0316 µM, first compound 10 µM
[7] = second compound 0.1 µM, first compound 0.0316 µM
[8] = second compound 0.1 µM, first compound 0.1 µM
[9] = second compound 0.1 µM, first compound 0.316 µM
[10] = second compound 0.1 µM, first compound 1 µM
[11] = second compound 0.1 µM, first compound 3.16 µM
[12] = second compound 0.1 µM, first compound 10 µM
[13] = second compound 0.316 µM, first compound 0.0316 µM
[14] = second compound 0.316 µM, first compound 0.1 µM
[15] = second compound 0.316 µM, first compound 0.316 µM
[16] = second compound 0.316 µM, first compound 1 µM
[17] = second compound 0.316 µM, first compound 3.16 µM
[18] = second compound 0.316 µM, first compound 10 µM
[19] = second compound 1 µM, first compound 0.0316 µM
[20] = second compound 1 µM, first compound 0.1 µM
[21] = second compound 1 µM, first compound 0.316 µM
[22] = second compound 1 µM, first compound 1 µM
[23] = second compound 1 µM, first compound 3.16 µM
[24] = second compound 1 µM, first compound 10 µM
[25] = second compound 3.16 µM, first compound 0.0316 µM
[26] = second compound 3.16 µM, first compound 0.1 µM
[27] = second compound 3.16 µM, first compound 0.316 µM
[28] = second compound 3.16 µM, first compound 1 µM
[29] = second compound 3.16 µM, first compound 3.16 µM
[30] = second compound 3.16 µM, first compound 10 µM
[31] = second compound 10 µM, first compound 0.0316 µM
[32] = second compound 10 µM, first compound 0.1 µM
[33] = second compound 10 µM, first compound 0.316 µM
[34] = second compound 10 µM, first compound 1 µM
[35] = second compound 10 µM, first compound 3.16 µM
[36] = second compound 10 µM, first compound 10 µM
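Also: spheroids exposed to compounds for 7 days before viability readout.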
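For viability, T/C in this document: luminescence signal used as surrogate for viable cell content; 100% = DMSO vehicle control viability.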

Q: For CCc1cc2c(N3CCc4c(cc(Cn5ccnc5)cc4-c4cn(C)nc4C(F)(F)F)C3=O)ccnc2c(OC)n1 + Nc1ccc(C#CCN(C(=O)Cc2ncc(C(F)(F)F)cc2C(F)(F)F)c2ccc(F)cc2)nn1, which IC50 (second compound 0.0316 µM) is on record?
A: > 10 µM

Q: And the IC50 (second compound 0.1 µM)?
A: > 10 µM

Q: What about the IC50 (second compound 0.316 µM) of the same compound?
A: > 10 µM

Q: What about the IC50 (second compound 1 µM) of the same compound?
A: > 10 µM

Q: And the IC50 (second compound 3.16 µM)?
A: > 10 µM

Q: And the IC50 (second compound 10 µM)?
A: > 10 µM

Q: And the viability, T/C [1]?
A: 97.9%

Q: What about the viability, T/C [2] of the same compound?
A: 106%

Q: What about the viability, T/C [3] of the same compound?
A: 87.8%

Q: What about the viability, T/C [4] of the same compound?
A: 89.5%

Q: And the viability, T/C [5]?
A: 81.3%

Q: What about the viability, T/C [6] of the same compound?
A: 80.9%

Q: And the viability, T/C [7]?
A: 98.7%

Q: What about the viability, T/C [8] of the same compound?
A: 110%

Q: What about the viability, T/C [9] of the same compound?
A: 82.9%

Q: What about the viability, T/C [10] of the same compound?
A: 92.8%

Q: And the viability, T/C [11]?
A: 102%

Q: And the viability, T/C [12]?
A: 69.5%

Q: And the viability, T/C [13]?
A: 101%

Q: What about the viability, T/C [14] of the same compound?
A: 111%

Q: What about the viability, T/C [15] of the same compound?
A: 82.3%

Q: What about the viability, T/C [16] of the same compound?
A: 82.5%

Q: What about the viability, T/C [17] of the same compound?
A: 101%

Q: And the viability, T/C [18]?
A: 70.8%

Q: And the viability, T/C [19]?
A: 92.7%

Q: And the viability, T/C [20]?
A: 89.5%

Q: And the viability, T/C [21]?
A: 79.6%

Q: And the viability, T/C [22]?
A: 87.6%

Q: What about the viability, T/C [23] of the same compound?
A: 94.3%

Q: And the viability, T/C [24]?
A: 72.2%

Q: What about the viability, T/C [25] of the same compound?
A: 99.8%

Q: And the viability, T/C [26]?
A: 96.7%

Q: What about the viability, T/C [27] of the same compound?
A: 82.2%

Q: What about the viability, T/C [28] of the same compound?
A: 99.6%

Q: And the viability, T/C [29]?
A: 80.9%

Q: And the viability, T/C [30]?
A: 74.1%

Q: What about the viability, T/C [31] of the same compound?
A: 106%

Q: And the viability, T/C [32]?
A: 96.5%

Q: And the viability, T/C [33]?
A: 97.8%

Q: What about the viability, T/C [34] of the same compound?
A: 104%

Q: And the viability, T/C [35]?
A: 84.9%

Q: What about the viability, T/C [36] of the same compound?
A: 77.7%

Q: How did the IC50 (second compound 0.0316 µM) turn out when CNCc1ccc(-c2[nH]c3cc(F)cc4c3c2CCNC4=O)cc1 + COC1C(OC(N)=O)C(O)C(Oc2ccc3c(O)c(NC(=O)c4ccc(O)c(CC=C(C)C)c4)c(=O)oc3c2C)OC1(C)C was run?
A: > 10 µM

Q: What about the IC50 (second compound 0.1 µM) of the same compound?
A: > 10 µM

Q: And the IC50 (second compound 0.316 µM)?
A: > 10 µM

Q: What about the IC50 (second compound 1 µM) of the same compound?
A: > 10 µM

Q: What about the IC50 (second compound 3.16 µM) of the same compound?
A: > 10 µM

Q: What about the IC50 (second compound 10 µM) of the same compound?
A: > 10 µM

Q: And the viability, T/C [1]?
A: 106%

Q: And the viability, T/C [2]?
A: 96.8%

Q: What about the viability, T/C [3] of the same compound?
A: 102%

Q: What about the viability, T/C [4] of the same compound?
A: 96.7%

Q: And the viability, T/C [5]?
A: 90.7%

Q: And the viability, T/C [6]?
A: 91.6%

Q: And the viability, T/C [7]?
A: 97%

Q: What about the viability, T/C [8] of the same compound?
A: 97.8%

Q: What about the viability, T/C [9] of the same compound?
A: 88%

Q: And the viability, T/C [10]?
A: 95.6%

Q: And the viability, T/C [11]?
A: 88%

Q: What about the viability, T/C [12] of the same compound?
A: 98.3%

Q: What about the viability, T/C [13] of the same compound?
A: 94.9%

Q: What about the viability, T/C [14] of the same compound?
A: 89.4%

Q: What about the viability, T/C [15] of the same compound?
A: 95.8%

Q: And the viability, T/C [16]?
A: 89.2%

Q: What about the viability, T/C [17] of the same compound?
A: 96.1%

Q: And the viability, T/C [18]?
A: 104%

Q: What about the viability, T/C [19] of the same compound?
A: 90.4%

Q: And the viability, T/C [20]?
A: 98.5%

Q: And the viability, T/C [21]?
A: 118%

Q: And the viability, T/C [22]?
A: 86.7%

Q: What about the viability, T/C [23] of the same compound?
A: 95.7%

Q: What about the viability, T/C [24] of the same compound?
A: 102%

Q: What about the viability, T/C [25] of the same compound?
A: 99.5%

Q: And the viability, T/C [26]?
A: 95.8%

Q: What about the viability, T/C [27] of the same compound?
A: 98.4%

Q: And the viability, T/C [28]?
A: 92.2%

Q: And the viability, T/C [29]?
A: 98.1%

Q: What about the viability, T/C [30] of the same compound?
A: 96.1%

Q: And the viability, T/C [31]?
A: 98.5%

Q: And the viability, T/C [32]?
A: 101%

Q: What about the viability, T/C [33] of the same compound?
A: 92.4%

Q: And the viability, T/C [34]?
A: 94.7%

Q: And the viability, T/C [35]?
A: 98.5%

Q: What about the viability, T/C [36] of the same compound?
A: 102%

Q: O=c1[nH]cc(F)c(=O)[nH]1 + Nc1ccc(C#CCN(C(=O)Cc2ncc(C(F)(F)F)cc2C(F)(F)F)c2ccc(F)cc2)nn1 was tested. Which IC50 (second compound 0.0316 µM) did it give?
A: > 10 µM

Q: What about the IC50 (second compound 0.1 µM) of the same compound?
A: > 10 µM

Q: What about the IC50 (second compound 0.316 µM) of the same compound?
A: > 10 µM

Q: What about the IC50 (second compound 1 µM) of the same compound?
A: > 10 µM

Q: And the IC50 (second compound 3.16 µM)?
A: > 10 µM

Q: What about the IC50 (second compound 10 µM) of the same compound?
A: > 10 µM

Q: What about the viability, T/C [1] of the same compound?
A: 109%

Q: And the viability, T/C [2]?
A: 103%

Q: What about the viability, T/C [3] of the same compound?
A: 101%

Q: And the viability, T/C [4]?
A: 91.1%

Q: And the viability, T/C [5]?
A: 98.5%

Q: And the viability, T/C [6]?
A: 103%

Q: What about the viability, T/C [7] of the same compound?
A: 104%

Q: And the viability, T/C [8]?
A: 117%

Q: And the viability, T/C [9]?
A: 101%

Q: And the viability, T/C [10]?
A: 105%

Q: What about the viability, T/C [11] of the same compound?
A: 98.3%

Q: What about the viability, T/C [12] of the same compound?
A: 93.7%

Q: And the viability, T/C [13]?
A: 105%

Q: What about the viability, T/C [14] of the same compound?
A: 105%

Q: And the viability, T/C [15]?
A: 87.6%

Q: And the viability, T/C [16]?
A: 98%

Q: And the viability, T/C [17]?
A: 103%

Q: And the viability, T/C [18]?
A: 97.7%

Q: What about the viability, T/C [19] of the same compound?
A: 113%

Q: And the viability, T/C [20]?
A: 107%

Q: What about the viability, T/C [21] of the same compound?
A: 102%

Q: And the viability, T/C [22]?
A: 90.1%

Q: What about the viability, T/C [23] of the same compound?
A: 114%

Q: And the viability, T/C [24]?
A: 95.2%

Q: What about the viability, T/C [25] of the same compound?
A: 118%

Q: What about the viability, T/C [26] of the same compound?
A: 101%

Q: What about the viability, T/C [27] of the same compound?
A: 112%

Q: And the viability, T/C [28]?
A: 105%

Q: What about the viability, T/C [29] of the same compound?
A: 105%

Q: And the viability, T/C [30]?
A: 105%

Q: What about the viability, T/C [31] of the same compound?
A: 107%

Q: What about the viability, T/C [32] of the same compound?
A: 125%

Q: And the viability, T/C [33]?
A: 132%

Q: What about the viability, T/C [34] of the same compound?
A: 116%

Q: And the viability, T/C [35]?
A: 105%

Q: What about the viability, T/C [36] of the same compound?
A: 112%
